The assay deals with HepG2 cells. Kind of assay: ApoB-100 secretion in HepG2 cells (ELISA). Format: cell-based, human. Conditions: compound 13 100 nM, atorvastatin 1 nM, ALK3-Fc 400 ng/mL. As for the experimental part: Hepatoma G2 (HepG2) cells and human aortic endothelial cells (HAECs) were purchased from the American type culture collection (Manassas, Va.). HepG2 cells were maintained in Eagle's Minimum Essential Medium (EMEM) supplemented with 10% fetal bovine serum, 100 units/ml of penicillin, 0.1 mg/ml of streptomycin and glutamine. HAECs were cultured in endothelial cell basal medium (EBM 2) supplemented with the EBM2 bullet kit (Lonza, Basel, Switzerland). For experiments, cells were seeded into 6 or 12-well plates (BD Falcon, Franklin Lakes, N.J.) at a concentration of 0.5×10^6 cells per 5 mL of media. HAECs were maintained in EBM 2 with 0.1% FBS without additional growth factors for all experiments. HepG2 cells were grown to 70% confluence before they were incubated in EMEM enriched with 0.1% FBS. ApoB-100 measurements were performed in supernatants from HepG2 that had been incubated in EMEM containing 0.5% bovine serum albumin using a commercially available Human ApoB-100 ELISA kit (Mabtech AB, Nacka Strand, Sweden). BMP2 protein measurements were performed in supernatants from HAECs that had been incubated in EBM2 containing 0.1% FBS using a BMP2 ELISA kit (R&D Systems).
(ELISA stands for enzyme-linked immunosorbent assay.)

Take `CC(C)c1c(C(=O)Nc2ccccc2)c(-c2ccccc2)c(-c2ccc(F)cc2)n1CC[C@@H](O)C[C@@H](O)CC(=O)O` [Atorvastatin, atorvastatin, reference compound]: the “basal ApoB-100 secretion (absence of BMP2)” value is recorded as “reduced basal apolipoprotein B100 (ApoB-100) secretion”. In addition, for the setting “BMP2 100 ng/mL”, the “BMP2-induced ApoB-100 secretion” value is listed as “did not prevent the induction of ApoB-100 synthesis by BMP2”. Besides, where the note is “listed as atorvastatin”, the “basal ApoB-100 secretion (absence of BMP2)” value is listed as “reduced ApoB-100 production in the absence of BMP2”.

The values are drawn from patent publication US20140038953A1, “COMPOSITIONS AND METHODS FOR CARDIOVASCULAR DISEASE” (THE GENERAL HOSPITAL CORPORATION, priority 2011, published 2014).
